One assay concerns Aureobasidium pullulans. The experiment in a line: preservative for latex paints. It counts as cell-based. Particulars: for zone of inhibition at 0.25 % / zone of inhibition at 0.5 %: Aureobasidium pullulans, 504 h; for zone of inhibition at 0.25 %: read-out: Zone (zone of inhibition), Conc. 0.25% in vinyl acetate paint, three weeks, 27°-28°; for zone of inhibition at 0.5 %: read-out: Zone (zone of inhibition), Conc. 0.5% in vinyl acetate paint, three weeks, 27°-28°; for Surface (growth on the surface of painted square) / Zone (zone of inhibition): three weeks, 27°-28°; for Surface (growth on the surface of painted square): none, medium or heavy; for Zone (zone of inhibition): listed as CH3, Cl, Cl. As to the method: Various quantities of the chemical were incorporated into a white exterior vinyl acetate paint. Whatman #30 filter paper was painted with one coat of paint on each side. One inch squares were cut and placed in Petri dishes on a malt agar.
The surface of both the agar and the painted squares were inoculated with a spore suspension of Aureobasidium pullulans. The plates were examined for zones of inhibition and surface growth after three weeks incubation in a humidity chamber at 27°-28°.
Various quantities of 4,5-dichloro-2-methyl-4-isothiazolin-3-thione were incorporated into a white exterior vinyl acetate paint and tested as described in Example IV.

In a further assay the test system is P. piscarium. Kind of assay: slimicide for pulp and paper mill water systems, P. piscarium. Format: cell-based. As to the method: (§1) Various quantities of a 6% solution of this compound in dimethylformamide were incorporated into 24 ml of a test substrate composed as follows:
(§2) 8.4 g Whatman No. 2 cellulose
(§3) 1.0 g Nutrient Broth, Difco
(§4) 10.0 ml Mersize Rm 70R (Monsanto)
(§5) The samples were inoculated with four different organisms and incubated at 28° C. At weekly intervals the samples were examined for the presence of microbial growth and reinoculated during a total incubation period of four weeks.
(§6) The test of Example V was used to determine the effectiveness of 4,5-dichloro-3-dicyanomethylene-2-methyl-4-isothiazoline as a slimicide.

The subject of another assay is E. aerogenes. Kind of assay: slimicide for pulp and paper mill water systems, E. aerogenes. Format: cell-based. The note with it: for MIC: Klebsiella aerogenes. As to the method: as §1, §2, §3, §4, §5, §6
For the next assay, the system named is Ps. aeruginosa. Kind of assay: preservative for cutting oil emulsions. The note with it: for MIC: Pseudomonas aeruginosa; for Minimum Inhibitory Concentration: listed as CH3, Cl, Cl. Format: cell-based. As to the method:
Various aliquots of a 6% solution of the chemical in ethanol were added to cutting oil emulsions prepared by diluting Kutwell 30 cutting oil concentrate 1 to 30 with water. These samples were inoculated with a culture of Ps. aeruginosa and incubated at 28° on a rotary shaker. At weekly intervals the samples were examined for microorganisms and then reinoculated and incubated.

The next assay concerns A. niger. Kind of assay: slimicide for pulp and paper mill water systems, A. niger. It counts as cell-based. Particulars: for MIC: Aspergillus niger, read-out: Minimum inhibitory concentration. As to the method:
as §1, §2, §3, §4, §5, §6

Another assay deals with P. aeruginosa. The experiment in a line: slimicide for pulp and paper mill water systems, P. aeruginosa. It counts as cell-based. Particulars: for MIC: Pseudomonas aeruginosa, read-out: Minimum inhibitory concentration. As to the method:
as §1, §2, §3, §4, §5, §6

The next assay deals with four different organisms. The experiment in a line: slimicide for pulp and paper mill water systems, overall. Format: cell-based, P. aeruginosa, E. aerogenes, A. niger, P. Piscarium. The note with it: four weeks, 28° C. As to the method:
as §1, §2, §3, §4, §5

Where [1] appears, read: Conc. 0.25% in vinyl acetate paint.
Where [2] appears, read: Conc. 0.5% in vinyl acetate paint.
The mark [3] stands for this setting: read-out: Minimum inhibitory concentration, P. Piscarium, week 1, 28° C.
Where [4] appears, read: read-out: Minimum inhibitory concentration, P. Piscarium, week 2, 28° C.
Setting [5] is: read-out: Minimum inhibitory concentration, P. Piscarium, week 3, 28° C.
Setting [6] is: read-out: Minimum inhibitory concentration, P. Piscarium, week 4, 28° C.
The mark [7] stands for this setting: read-out: Minimum inhibitory concentration, E. aerogenes, week 1, 28° C.
The mark [8] stands for this setting: read-out: Minimum inhibitory concentration, E. aerogenes, week 2, 28° C.
Where [9] appears, read: read-out: Minimum inhibitory concentration, E. aerogenes, week 3, 28° C.
Where [10] appears, read: read-out: Minimum inhibitory concentration, E. aerogenes, week 4, 28° C.
Setting [11] is: 168 h, read-out: Minimum Inhibitory Concentration, cutting oil emulsion, incubation 1 week, 28°.
Setting [12] is: 336 h, read-out: Minimum Inhibitory Concentration, cutting oil emulsion, incubation 2 weeks, 28°.

Converted amounts (≈) assume the structure as drawn. Read-outs that look alike come from different tables or passages of the source.

As for `Cn1sc(Cl)c(Cl)c1=S` [No. 1 (Table VIII), 4,5-Dichloro-2-methyl-4-isothiazolin-3-thione], in the assay with Aureobasidium pullulans, the zone of inhibition (in general, the extent of the growth-free halo in a diffusion test) at 0.25 % amounted to 20 mm. Further, the zone of inhibition at 0.5 % in the assay on Aureobasidium pullulans is 20 mm. For the same molecule, the “Surface (growth on the surface of painted square)” value with Aureobasidium pullulans (setting [1]) and in the assay on Aureobasidium pullulans (setting [2]) was “no growth” each time. Further, the MIC in the assay on P. piscarium (setting [3]) is under 8 µg/mL; with P. piscarium (setting [4]), under 8 µg/mL; in the assay on P. piscarium (setting [5]) it was under 8 µg/mL; with P. piscarium (setting [6]), 16 µg/mL (≈ 80 µM); with E. aerogenes (setting [7]) it was under 8 µg/mL; in the assay with E. aerogenes (setting [8]) it was under 8 µg/mL. Besides, the MIC was 16 µg/mL (≈ 80 µM) in the assay with E. aerogenes (setting [9]); 16 µg/mL (≈ 80 µM) with E. aerogenes (setting [10]); under 16 µg/mL in the assay with Ps. aeruginosa (setting [11]); 62 µg/mL (≈ 310 µM) in the assay with Ps. aeruginosa (setting [12]); 62 µg/mL (≈ 310 µM) in the assay with Ps. aeruginosa (504 h, read-out: Minimum Inhibitory Concentration, cutting oil emulsion, incubation 3 weeks, 28°); 62 µg/mL (≈ 310 µM) in the assay on Ps. aeruginosa (672 h, read-out: Minimum Inhibitory Concentration, cutting oil emulsion, incubation 4 weeks, 28°). Also, the MIC in the assay on A. niger was under 8 µg/mL; with P. aeruginosa it was 16 µg/mL (≈ 80 µM). In addition, the Minimum Inhibitory Concentration was under 8 µg/mL with A. niger (A. niger, week 2, 28° C.); under 8 µg/mL in the assay with A. niger (A. niger, week 3, 28° C.); under 8 µg/mL with A. niger (A. niger, week 4, 28° C.); 16 µg/mL with P. aeruginosa (P. aeruginosa, week 2, 28° C.); 16 µg/mL in the assay on P. aeruginosa (P. aeruginosa, week 3, 28° C.); 16 µg/mL in the assay on P. aeruginosa (P. aeruginosa, week 4, 28° C.).
On to `C[n+]1sc(Cl)c(Cl)c1Cl` [No. 3 (Table I), 2-Methyl-3,4,5-trichloroisothiazolium hexachloroantimonate], for which the “Zone (zone of inhibition)” value in the assay on Aureobasidium pullulans (Conc. 0.25% in vinyl acetate paint, SbCl6) is given as 20 mm; in the assay with Aureobasidium pullulans (Conc. 0.5% in vinyl acetate paint, SbCl6) it was 20 mm. For the same molecule, the “Minimum Inhibitory Concentration” value was 2 µg/mL in the assay on Ps. aeruginosa (cutting oil emulsion, incubation 1 week, 28°, SbCl6); 2 µg/mL with Ps. aeruginosa (cutting oil emulsion, incubation 2 weeks, 28°, SbCl6); 2 µg/mL in the assay with Ps. aeruginosa (cutting oil emulsion, incubation 3 weeks, 28°, SbCl6); 64 µg/mL with Ps. aeruginosa (cutting oil emulsion, incubation 4 weeks, 28°, SbCl6).
In the case of `C[n+]1scc(Cl)c1Cl` [No. 22 (Table I), 3,4-Dichloro-2-methylisothiazolium fluorosulfonate], the zone of inhibition at 0.25 % with Aureobasidium pullulans amounted to 0 mm. Also, in the assay with Aureobasidium pullulans, the zone of inhibition at 0.5 % was found to be 0 mm. For the same molecule, the MIC in the assay with Ps. aeruginosa (setting [11]) and in the assay with Ps. aeruginosa (setting [12]) was 32 µg/mL throughout. The “Minimum Inhibitory Concentration” value with Ps. aeruginosa (cutting oil emulsion, incubation 3 weeks, 28°, H, O3SF) stood at 125 µg/mL; in the assay on Ps. aeruginosa (cutting oil emulsion, incubation 4 weeks, 28°, H, O3SF), 250 µg/mL.
Consider `CN1SC(Cl)=C(Cl)C1=C(C#N)C#N` [drawing 12 CH3, Cl, Cl, 4,5-dichloro-3-dicyanomethylene-2-methyl-4-isothiazoline], for which the MIC was 250 µg/mL (≈ 1080 µM) with P. piscarium (P. Piscarium, week 1, 28° C., read-out: Minimum inhibitory concentration); 250 µg/mL (≈ 1080 µM) in the assay with P. piscarium (P. Piscarium, week 2, 28° C., read-out: Minimum inhibitory concentration); 250 µg/mL (≈ 1080 µM) in the assay on P. piscarium (P. Piscarium, week 3, 28° C., read-out: Minimum inhibitory concentration); 500 µg/mL (≈ 2150 µM) in the assay on P. piscarium (P. Piscarium, week 4, 28° C., read-out: Minimum inhibitory concentration); 250 µg/mL (≈ 1080 µM) in the assay on E. aerogenes (E. aerogenes, week 1, 28° C., read-out: Minimum inhibitory concentration); 125 µg/mL (≈ 539 µM) with Ps. aeruginosa (168 h, cutting oil emulsion, incubation 1 week, 28°, read-out: Minimum Inhibitory Concentration). In addition, the MIC in the assay with Ps. aeruginosa (336 h, cutting oil emulsion, incubation 2 weeks, 28°, read-out: Minimum Inhibitory Concentration) amounted to 125 µg/mL (≈ 539 µM); in the assay on Ps. aeruginosa (504 h, cutting oil emulsion, incubation 3 weeks, 28°, read-out: Minimum Inhibitory Concentration), 250 µg/mL (≈ 1080 µM); in the assay with Ps. aeruginosa (672 h, cutting oil emulsion, incubation 4 weeks, 28°, read-out: Minimum Inhibitory Concentration), 250 µg/mL (≈ 1080 µM); with A. niger (A. niger, week 1, 28° C.), 250 µg/mL (≈ 1080 µM); in the assay on A. niger (A. niger, week 2, 28° C.), 500 µg/mL (≈ 2150 µM); in the assay with A. niger (A. niger, week 3, 28° C.), 500 µg/mL (≈ 2150 µM). The MIC with A. niger (A. niger, week 4, 28° C.) came to 500 µg/mL (≈ 2150 µM); in the assay on P. aeruginosa (P. aeruginosa, week 1, 28° C.), 250 µg/mL (≈ 1080 µM). Besides, the Minimum Inhibitory Concentration in the assay with E. aerogenes (E. aerogenes, week 2, 28° C.) worked out at 250 µg/mL; with E. aerogenes (E. aerogenes, week 3, 28° C.) it was 250 µg/mL; in the assay with E. aerogenes (E. aerogenes, week 4, 28° C.) it was 250 µg/mL; in the assay with P. aeruginosa (P. aeruginosa, week 2, 28° C.) it was 250 µg/mL; with P. aeruginosa (P. aeruginosa, week 3, 28° C.), 250 µg/mL; in the assay with P. aeruginosa (P. aeruginosa, week 4, 28° C.), 250 µg/mL.
With `C[n+]1sc(Cl)c(Cl)c1Cl` [No. 1 (Table I), 2-Methyl-3,4,5-trichloroisothiazolium fluorosulfonate], the zone of inhibition at 0.5 % in the assay on Aureobasidium pullulans was over 20 mm. Moreover, in the assay on Aureobasidium pullulans (Conc. 0.25% in vinyl acetate paint, O3SF), the “Zone (zone of inhibition)” value is 0 mm. Besides, the “Minimum Inhibitory Concentration” value is under 16 µg/mL with Ps. aeruginosa (cutting oil emulsion, incubation 1 week, 28°, O3SF); under 16 µg/mL with Ps. aeruginosa (cutting oil emulsion, incubation 2 weeks, 28°, O3SF); under 16 µg/mL with Ps. aeruginosa (cutting oil emulsion, incubation 3 weeks, 28°, O3SF); under 16 µg/mL in the assay on Ps. aeruginosa (cutting oil emulsion, incubation 4 weeks, 28°, O3SF).
Take `C[n+]1sc(Cl)c(Cl)c1Cl` [No. 2 (Table I), 2-Methyl-3,4,5-trichloroisothiazolium methylsulfate]: the “Zone (zone of inhibition)” value is 0 mm with Aureobasidium pullulans (Conc. 0.25% in vinyl acetate paint, O3SOMe) and over 20 mm in the assay on Aureobasidium pullulans (Conc. 0.5% in vinyl acetate paint, O3SOMe). For the same molecule, the “Surface (growth on the surface of painted square)” value in the assay on Aureobasidium pullulans (setting [1]) and in the assay on Aureobasidium pullulans (setting [2]) was “None” throughout. Also, the MIC in the assay with P. piscarium (setting [3]), in the assay on P. piscarium (setting [4]), with P. piscarium (setting [5]), with P. piscarium (setting [6]), in the assay on E. aerogenes (setting [7]) and with E. aerogenes (setting [8]) was 3.9 µg/mL each time. Further, the MIC was 3.9 µg/mL with E. aerogenes (setting [9]), 3.9 µg/mL with E. aerogenes (setting [10]), 3.9 µg/mL in the assay on A. niger and 7.8 µg/mL with P. aeruginosa. The “Minimum Inhibitory Concentration” value in the assay on Ps. aeruginosa (cutting oil emulsion, incubation 1 week, 28°, O3SOMe) was under 2 µg/mL; in the assay on Ps. aeruginosa (cutting oil emulsion, incubation 2 weeks, 28°, O3SOMe) it was under 2 µg/mL; in the assay on Ps. aeruginosa (cutting oil emulsion, incubation 3 weeks, 28°, O3SOMe), under 16 µg/mL; with Ps. aeruginosa (cutting oil emulsion, incubation 4 weeks, 28°, O3SOMe), under 16 µg/mL; in the assay on A. niger (A. niger, week 2, 28° C.) it was 3.9 µg/mL; in the assay on A. niger (A. niger, week 3, 28° C.) it was 3.9 µg/mL. Besides, the Minimum Inhibitory Concentration worked out at 3.9 µg/mL with A. niger (A. niger, week 4, 28° C.); 7.8 µg/mL with P. aeruginosa (P. aeruginosa, week 2, 28° C.); 7.8 µg/mL in the assay on P. aeruginosa (P. aeruginosa, week 3, 28° C.); 7.8 µg/mL in the assay on P. aeruginosa (P. aeruginosa, week 4, 28° C.). In the assay with four different organisms, the “concentration effective as a slimicide” value was under 0.01%.

Values taken from US4281136A, “2-Alkyl-3-haloisothiazolium salts and their derivatives” (Givaudan Corporation, priority 1978, dated 1981).
